We go through one compound from PMC3425516 (PLoS ONE, 2012).

Experiment [1] has as its target recombinant human HDAC6 (Homo sapiens, UniProt Q9UBN7). As to the kind of experiment: biochemical.
Text: (§2) The HDACs in vitro activities of recombinant human HDAC 1, 2, 4, 6 and 8 (BPS Biosciences) were detected by fluorigenic release of 7-amino-4-methylcoumarin from substrate upon deacetylase enzymatic activity.
Experiment [2] concerns HUVEC. The experiment in a line: Crystal violet cell growth assay. Type of experiment: cell-based, human. The procedure: The HUVECs were seeded into 96-well culture plates (5000 cells/well) in quadruplicate. After 24 h incubation, cells were fixed with 0.1% crystal violet/20% methanol, representing cell population at the time of drug treatment (T 0). […] After 48 h incubation at 37°C, cells were stained with 0.1% crystal violet/20% methanol for 10 minutes and washed for 3 times.

Experiment [3] concerns NCI-ADR cells. The experiment in a line: Sulforhodamine B cell growth assay. It is filed as cell-based. As to conditions: Homo sapiens, NCI/ADR-RES, SRB assay, 48 h. The procedure:
(§1) HCT116, MDAMB231 and NCI-ADR cells were seeded in 96-well plates in medium with 5% fetal bovine serum overnight. Cells were fixed with 10% trichloroacetic representing cell population at the time of drug treatment (T 0). […] Excess Sulforhodamine B was washed away by 1% acetic acid and dye-containing cells were lysed with 10 mmol/L Trizma base. […] By measuring time zero (T 0), control growth (C), and cell growth in the presence of the drug (Tx), the percentage growth was calculated. Percentage growth inhibition was calculated as 100-[(Tx–T 0)/(C-T 0)]×100.
(The SRB assay estimates cell density from bound dye.)

Experiment [4] concerns HCT116 cells. The experiment in a line: Sulforhodamine B cell growth assay. Type of experiment: cell-based. As to conditions: Homo sapiens, HCT-116; HCT116, SRB assay, 48 h, mean±S.E.M.; read-out: GI50. Here is the method:
as §1

Experiment [5] has as its system MDAMB231 cells. The experiment in a line: Sulforhodamine B cell growth assay. It is filed as cell-based. As to conditions: Homo sapiens, MDA-MB-231; MDAMB231, SRB assay, 48 h. The procedure: as §1
The test system of experiment [6] is total HDAC activity in HCT116 cells. As to the kind of experiment: Total HDACs enzymatic activity assay in treated cells. Type of experiment: cell-based, human. As to conditions: HCT116 cells treated 24 h. Here is the method: Total HDACs enzyme activity was determined using the Boc-Lys(Ac)-AMC fluorometric HDAC activity assay kit (BioVision, Mountain View, CA, USA).

The target in experiment [7] is recombinant human HDAC4 (Homo sapiens, UniProt P56524). The experiment in a line: biochemical.
Chain of recombinant human HDAC4 (P56524 whole entry): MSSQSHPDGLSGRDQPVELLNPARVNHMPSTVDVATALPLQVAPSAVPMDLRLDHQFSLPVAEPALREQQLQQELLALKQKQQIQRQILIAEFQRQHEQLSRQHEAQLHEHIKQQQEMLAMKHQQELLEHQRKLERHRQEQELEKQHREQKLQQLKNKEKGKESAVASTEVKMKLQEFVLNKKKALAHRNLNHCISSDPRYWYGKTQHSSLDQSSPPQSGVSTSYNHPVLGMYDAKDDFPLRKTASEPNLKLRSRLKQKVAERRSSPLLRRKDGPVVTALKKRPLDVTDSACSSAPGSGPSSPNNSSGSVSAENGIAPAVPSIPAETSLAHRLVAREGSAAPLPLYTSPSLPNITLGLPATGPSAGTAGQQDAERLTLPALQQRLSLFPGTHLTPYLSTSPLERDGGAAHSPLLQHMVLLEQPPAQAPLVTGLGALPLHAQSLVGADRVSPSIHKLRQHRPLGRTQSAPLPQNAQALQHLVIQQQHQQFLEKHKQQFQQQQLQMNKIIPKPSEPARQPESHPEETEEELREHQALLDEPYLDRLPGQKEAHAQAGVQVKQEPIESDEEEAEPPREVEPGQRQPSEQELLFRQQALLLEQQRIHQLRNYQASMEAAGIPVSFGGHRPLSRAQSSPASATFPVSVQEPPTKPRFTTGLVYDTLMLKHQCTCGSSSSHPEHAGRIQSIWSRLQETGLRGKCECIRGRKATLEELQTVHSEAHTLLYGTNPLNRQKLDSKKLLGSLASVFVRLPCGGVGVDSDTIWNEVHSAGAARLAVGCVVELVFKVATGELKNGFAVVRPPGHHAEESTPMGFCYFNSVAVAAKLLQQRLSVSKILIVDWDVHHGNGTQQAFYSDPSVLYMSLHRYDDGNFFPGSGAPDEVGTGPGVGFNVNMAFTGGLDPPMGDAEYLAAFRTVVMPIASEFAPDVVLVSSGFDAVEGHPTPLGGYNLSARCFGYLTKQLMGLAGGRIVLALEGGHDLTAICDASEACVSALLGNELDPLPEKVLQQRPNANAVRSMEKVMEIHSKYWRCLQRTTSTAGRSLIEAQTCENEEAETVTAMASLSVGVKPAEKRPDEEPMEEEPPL
Text: as §2

Chain of recombinant human HDAC6 (Q9UBN7 whole entry): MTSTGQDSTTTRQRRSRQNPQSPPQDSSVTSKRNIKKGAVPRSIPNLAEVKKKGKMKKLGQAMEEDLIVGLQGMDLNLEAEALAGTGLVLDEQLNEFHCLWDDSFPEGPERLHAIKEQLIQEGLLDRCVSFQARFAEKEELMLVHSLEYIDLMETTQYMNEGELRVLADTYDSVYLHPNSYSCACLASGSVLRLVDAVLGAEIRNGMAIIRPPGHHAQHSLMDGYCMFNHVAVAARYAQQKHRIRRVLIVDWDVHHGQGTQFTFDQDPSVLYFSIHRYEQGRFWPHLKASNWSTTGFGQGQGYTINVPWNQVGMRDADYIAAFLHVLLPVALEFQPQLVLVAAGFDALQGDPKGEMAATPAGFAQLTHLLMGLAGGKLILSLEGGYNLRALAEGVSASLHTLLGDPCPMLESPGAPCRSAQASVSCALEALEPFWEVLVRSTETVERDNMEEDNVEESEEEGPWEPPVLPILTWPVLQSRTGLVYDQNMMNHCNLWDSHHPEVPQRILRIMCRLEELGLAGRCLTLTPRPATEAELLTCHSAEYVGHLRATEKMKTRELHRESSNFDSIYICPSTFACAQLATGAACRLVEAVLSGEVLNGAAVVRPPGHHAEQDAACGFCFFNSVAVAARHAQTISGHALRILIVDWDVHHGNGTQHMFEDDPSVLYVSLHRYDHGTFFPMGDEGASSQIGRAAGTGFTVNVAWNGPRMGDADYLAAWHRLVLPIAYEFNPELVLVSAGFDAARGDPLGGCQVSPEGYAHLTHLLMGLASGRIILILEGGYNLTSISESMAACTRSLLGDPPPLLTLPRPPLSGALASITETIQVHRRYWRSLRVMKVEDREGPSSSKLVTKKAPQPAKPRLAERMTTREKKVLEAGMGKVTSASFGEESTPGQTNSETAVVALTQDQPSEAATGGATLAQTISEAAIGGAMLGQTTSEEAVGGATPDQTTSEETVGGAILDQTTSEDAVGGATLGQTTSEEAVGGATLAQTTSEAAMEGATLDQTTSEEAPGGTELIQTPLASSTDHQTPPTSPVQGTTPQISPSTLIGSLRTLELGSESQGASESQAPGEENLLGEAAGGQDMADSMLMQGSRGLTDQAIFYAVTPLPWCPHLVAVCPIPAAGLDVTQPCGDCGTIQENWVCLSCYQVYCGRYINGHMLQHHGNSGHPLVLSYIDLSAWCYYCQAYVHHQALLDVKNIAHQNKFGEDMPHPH

As usually defined, the IC50 is the concentration that inhibits the measured activity by half. By GI50 is commonly meant the concentration giving 50% growth inhibition. For the compound `O=C(C=Cc1ccc2c(c1)CCN2S(=O)(=O)c1ccccc1)NO` [MPT0E028, 3-(1-benzenesulfonyl-2,3-dihydro-1H-indol-5-yl)-N-hydroxy-acrylamide], the IC50 in experiment [1] was 29.5 ± 6.4 nM; in experiment [6], 4430 ± 500 nM; in experiment [7] it was over 10000 nM. In addition, the GI50 in experiment [2] (HUVEC (human normal cells), crystal violet assay, 48 h) is 3570 ± 450 nM; in experiment [3] it was 140 ± 20 nM; in experiment [4], 90 ± 4 nM; in experiment [5], 190 ± 40 nM. Further, the “folds less sensitive against normal cells (safety margin)” value in experiment [2] (HUVEC versus cancer cells) is 20–40 folds.
